Consider one molecule from patent publication US20060234278A1, “Sequences used to identify if a female mammal comprises a mutation in the alpha-fetoprotein sequence(S) or a partial or total deletion of the alpha-fetoprotein sequence(S)” (priority 1999, published 2006).

Common to all, as to type: in vivo, mouse
Assay [1] deals with AFP KO females. The experiment in a line: Fertility of AFP KO female pups after prenatal ATD treatment. The procedure:
(§1) Females heterozygous for the Afp tm2Ibmm allele (CD1 strain, 8th backcross level) were mated with Afp tm2Ibmm homozygous males and housed under the conditions described above. They then received a daily subcutaneous injection in the neck of 4 mg of the aromatase inhibitor ATD (1, 4, 6-androstatrien-3,17-dione, Steraloids, Newport, R.I.) dissolved in propylene glycol, from the 13.5th day of gestation (day 0.5 is defined as the day of vaginal plug detection) until the end of gestation. Controls were injected with propylene glycol only. Pups were born naturally or retrieved by Caesarian operation on embryonic day 20.5. Blood from the mothers was taken from the hart and estradiol levels were measured by classical RIA assay. Fertility of female pups was tested at the age of 2-3 months. In parallel, sisters of the female pups tested were dissected at the age of 3 months and total RNA was extracted from the pituitary and the hypothalamus as described above. cDNA was obtained using the TaqMan Reverse Transcription Reagents kit (Applied Biosystems) and real time PCR was performed on the 7300 Real Time PCR System (Applied Biosystems) with the Platinum Quantitative PCR SuperMix-UDG kit (Invitrogen) and the TaqMan Gene Expression Assays (Applied Biosystems) for pituitary genes except for Egr1. […]

For assay [2], the system named is Gnrh2 gene expression in the hypothalamus. The assay is described as follows: Real time PCR Gnrh2 gene expression in hypothalamus of prenatally ATD-treated AFP KO females. Conditions: prenatal ATD-treated AFP KO mice (n=7), normalized to Hprt. How it is done: as §1
For assay [3], the system named is Ucp1, Isp2, Egr1, Gnrhr expression in the pituitary. The experiment in a line: Real time PCR gene expression in pituitary of prenatally ATD-treated AFP KO females. Conditions: prenatal ATD-treated AFP KO females (n=7). The procedure: as §1
The test system of assay [4] is estrogen synthesis. The assay is described as follows: Serum estradiol levels of ATD-treated gestating females by RIA assay. Conditions: heterozygous gestating females, daily s.c. 4 mg ATD from day 13.5 of gestation; 10 pg/ml is the RIA detection limit. The procedure: as §1

As for `C[C@]12C=CC(=O)C=C1C=C[C@@H]1[C@@H]2CC[C@]2(C)C(=O)CC[C@@H]12` [ATD, 1,4,6-androstatrien-3,17-dione], the “Fertility of female pups” value in assay [1] (AFP KO and heterozygous pups from ATD-injected mothers, tested at 2-3 months, 8 KO and 17 heterozygous pups tested) is recorded as “fertile”. The Litter size entry in assay [1] (litters born to prenatally ATD-treated AFP KO and heterozygous females) is listed as “normal size”. In addition, the “Gnrh2 expression level in hypothalamus” value in assay [2] is “not increased”. For the same molecule, in assay [3] (normalized to Hprt, p=0.044), the “Pituitary gene expression levels vs untreated KO females” value was “statistically different from those of the untreated KO females”. Besides, the “Pituitary gene expression levels vs heterozygous untreated females” value in assay [3] (p=0.508, except Isp2 (p=0.014)) is recorded as “not statistically different from those of the heterozygous, untreated females”. For the same molecule, the Serum estradiol levels in assay [4] is under 10 pg/mL.
